Results from patent US9822104B2, “Taxifolin derivative with superior antioxidant effect and cosmetic composition containing the same” (Yeomyung Biochem Co., Ltd, priority 2015, dated 2017).

Key:
[1] = FRAP assay (ferric reducing ability); assay type: biochemical; details: for FRAP value: 37° C. for 10 minutes, absorbance at 593 nm, FeSO4 calibration, ascorbic acid control at 1 mg/mL, Table 2
Protocol: FRAP assay of the samples was conducted by slightly modifying the method of Benzie and Strain (Benzie I F F, Strain J J. 1996. The ferric reducing ability of plasma (FRAP) as a measure of “Antioxidant power”: The FRAP assay. Anal Biochem 230: 70-79). The FRAP reagent was prepared by heating 25 mL acetate buffer (300 mM, pH 3.6) at 37′ C and adding a solution of 5 mL of 10 mM 2,4,6-tris(2-pyridyl)-s-triazine (TPTZ, Sigma) and 2.5 mL of 20 mM […] in 40 mM HCl thereto. 0.03 mL of the sample (Example 1 or Example 2) and 0.09 mL of distilled water were added to 0.9 mL of the prepared FRAP reagent, reaction was proceeded at 37° C. for 10 minutes and absorbance at 593 nm was measured using a spectrophotometer (Benchmark PLUS Bio-Rad). Distilled water, instead of the sample, was used as the blank. 1 mg/mL of ascorbic acid was used as a control group. A calibration equation for FeSO4 made by repetition at different concentrations of 0.125, 0.25, 0.5, 1 and 2 mM was obtained and measurement values of the samples were converted to FRAP values by applying the measurement values thereto. All measurements were repeated three times.

[2] = DPPH radical scavenging assay; assay type: biochemical; details: for Antioxidative activity (IC50 mg/mL): DPPH radical scavenging, absorbance at 517 nm, reacted in the dark one hour, repeated three times, Table 1; for IC50 of DPPH radical scavenging activity: FIGS. 15A and 15B
Protocol: The antioxidant effect of synthesized taxifolin derivative was measured using a DPPH(1,1-diphenyl-2-picrylhydrazyl) radical (Blois M S. 1958. Antioxidant determination by the use of a stable free radical. Nature 25: 1199-1120). For measurement, different concentrations of 0.1 mL of the synthesized taxifolin derivatives were prepared and then mixed with 2.5 mL of ethanol. 0.5 mL of a 0.2 mM DPPH solution was added to the resulting mixture and reacted in the dark for one hour. Then, the absorbance of the reaction product was measured at 517 nm using a UV/Vis-spectrophotometer (BIO-RAD, USA). All tests were repeated three times, methanol was used as a blank sample and DPPH radical effect was calculated in accordance with the following Equation 1. DPPH radical scavenging activity was represented by IC50 (the concentration required for 50% inhibition). Scavenging effect (%)=(A−B)/A×100 [Equation 1]
where A=absorbance at 517 nm without test sample
where B=absorbance at 517 nm with test sample

Structure (SMILES) | Antioxidative activity (IC50 mg/mL) [2] [mg/mL] | IC50 of DPPH radical scavenging activity [2] | IC50 of DPPH radical scavenging activity ([2]; listed as Example 2) | FRAP value [1] [mM] | FRAP value, ranking in words ([1]; FIG. 16, comparison among the samples)
O=C(O)CCCC[C@@H]1CCSS1 (racemic) [Lipoic acid] | 515.77 ± 5.41 | about 250 mg/ml |  | 1.14 ± 0.019 | 
O=C1O[C@H]([C@@H](O)CO)C(O)=C1O [Ascorbic acid, ascorbic acid] |  |  |  | 3.7 ± 0.007 | 
CC1(C)SCCC(CCCCC(=O)O)S1 (stereo not drawn) [Lipoic acid (dithiol protection), 5-(2,2-dimethyl-1,3-dithian-4-yl)pentanoic acid] |  | about 2,000 mg/ml |  | 0.74 ± 0.006 | 

Second part, led by results:

Antioxidative activity (IC50 mg/mL) [2] [mg/mL] | IC50 of DPPH radical scavenging activity [2] | IC50 of DPPH radical scavenging activity ([2]; listed as Example 2) | Structure (SMILES) | FRAP value [1] [mM] | FRAP value, ranking in words ([1]; FIG. 16, comparison among the samples)
3.22 ± 0.05 |  |  | OCCCCCC1CCSS1 (stereo not drawn) [Lipoic alcohol] | 1.24 ± 0.007 | 
 | 220 ± 3 µg/mL | very low IC50 | O=C(CCCCC1CCSS1)Oc1cc(OC(=O)CCCCC2CCSS2)c2c(c1)OC(c1ccc(OC(=O)CCCCC3CCSS3)c(OC(=O)CCCCC3CCSS3)c1)C(OC(=O)CCCCC1CCSS1)C2=O (stereo not drawn) [Taxifolin penta lipoate, 2-(3,4-bis(5-(1,2-dithiolan-3-yl)pentanoyloxy)phenyl)-4-oxochroman-3,5,7-triyl tris(5-(1,2-dithiolan-3-yl)pentanoate)] | 3.57 ± 0.146 | next highest value
